Test results: US20090118314A1, “TUMOR SUPPRESSOR” (JAPAN AS REPRESENTED BY DIRECTOR GENERAL OF AGENCY CENTER, priority 2006, published 2009)

Legend:
PAI-1 = PAI-1 (Homo sapiens, UniProt P05121); test: PAI-1 inhibitory activity using synthetic substrate S-2288; type: biochemical
Excerpt: PAI-1 inhibitory activity can be measured using a synthetic substrate S-2288 according to the methods described in International Publication WO04/011442 pamphlet, International Publication WO04/10996 pamphlet, JP-A-2004-250401, etc.

Min mice = test: Cancer suppression test (intestinal polyp development) in Min mice; type: in vivo; conditions: male Min mice, 100 ppm in feed, sacrificed at 15 weeks old
Excerpt: That is to say, the inventors used, as a test system, familial adenomatous polyposis (FAP) model mice (Apc gene hetero-deficient mice) belonging to a high risk group of large intestinal cancer. These model mice have two characteristics. […] Thus, this mouse can be used as an experimental animal model useful for examining the relationship between a hyperlipidemia condition and large intestinal cancer. In this test, based on the fact that expression of PAI-1 was increased in the polyps of FAP patients and that expression of PAI-1 was induced by triglyceride, the action of suppressing the development of intestinal polyps of a PAI-1-inhibiting compound was evaluated using Min mice that were one type of Apc gene-deficient mice.
5-week-old male Min mice (CLEA Japan, Inc.) were purchased. After giving a basic feed (AIN-76A) to the mice for 1 week, 100 ppm of a test substance was mixed into the feed, and the mixed feed was then given to the mice. On the other hand, in the case of wild-type mice also, the same amount of the test substance was mixed into the feed, and the mixed feed was then given to the wild-type mice. The body weight and the feed intake were measured every week. The mice were sacrificed under anesthesia, when they were 15 weeks old. Then, the weights of main organs (spleen and heart) were measured. Small intestine and large intestine were washed and were then excised in a longitudinal direction, followed by fixing with formalin. The number of intestinal polyps in the small intestine and large intestine were counted and the size thereof were measured under a stereoscopic microscope.

PAI-1, sequence (P05121 24-402, species assumed): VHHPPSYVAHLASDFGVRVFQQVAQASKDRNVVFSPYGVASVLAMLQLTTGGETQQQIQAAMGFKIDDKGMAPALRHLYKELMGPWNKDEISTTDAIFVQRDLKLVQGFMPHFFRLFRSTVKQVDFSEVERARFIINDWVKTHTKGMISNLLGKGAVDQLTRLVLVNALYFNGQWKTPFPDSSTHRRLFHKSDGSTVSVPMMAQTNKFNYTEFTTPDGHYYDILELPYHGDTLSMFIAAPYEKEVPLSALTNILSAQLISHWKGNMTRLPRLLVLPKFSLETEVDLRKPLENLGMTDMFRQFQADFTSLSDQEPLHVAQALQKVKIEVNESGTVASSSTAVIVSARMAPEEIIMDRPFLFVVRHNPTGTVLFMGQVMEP

Row | IC50 (PAI-1) | SMILES | other results
1 | 440 nM | CC(C)(C)c1ccc2oc(-c3ccc4cc(OCCCCCC(C(=O)O)C(=O)O)ccc4c3)nc2c1 [Compound No. 20, [5-[[6-[5-(1,1-dimethylethyl)-2-benzoxazolyl]-2-naphthalenyl]oxy]pentyl]propanedioic acid] | development of intestinal polyps in the proximal portion of small intestine (Min mice): suppressed particularly strongly; distribution of the polyp size (Min mice): a decrease in the size was observed overall; polyps with a diameter size of 1 mm or less (Min mice): significantly decreased; weight of heart (indicator of anemia caused by bleeding associated with intestinal polyps) (Min mice): significantly reduced; weight of spleen (indicator of anemia caused by bleeding associated with intestinal polyps) (Min mice): significantly reduced; total number of polyps per mouse, decreased to (Min mice; small and large intestine): approximately 66%
2 | 940 nM | O=C(O)C(CCCCCOc1ccc2cc(-c3nc(-c4ccccc4)c(-c4ccccc4)o3)ccc2c1)C(=O)O [compound 6, [5-[[6-(4,5-diphenyl-2-oxazolyl)-2-naphthalenyl]oxy]pentyl]propanedioic acid] | –
3 | 590 nM | Cc1ccc(-c2nc(-c3ccc4cc(OCCCCCC(C(=O)O)C(=O)O)ccc4c3)oc2-c2ccc(C)cc2)cc1 [compound 7, [5-[[6-[4,5-bis(4-methylphenyl)-2-oxazolyl]-2-naphthalenyl]oxy]pentyl]propanedioic acid] | –
4 | 540 nM | O=C(O)C(CCCOc1ccc2cc(-c3nc4cc(-c5ccccc5)ccc4o3)ccc2c1)C(=O)O [compound 13, [3-[[6-(5-phenyl-2-benzoxazolyl)-2-naphthalenyl]oxy]propyl]propanedioic acid] | –
5 | 390 nM | O=C(O)C(CCCCCOc1ccc2cc(-c3nc4ccc(OCC5CCCCC5)cc4o3)ccc2c1)C(=O)O [compound 23, [5-[[6-[6-(cyclohexylmethoxy)-2-benzoxazolyl]-2-naphthalenyl]oxy]pentyl]propanedioic acid] | –
6 | 540 nM | O=C(O)C(CCCCCOc1ccc2cc(-c3nc4ccc(OCc5ccccc5)cc4o3)ccc2c1)C(=O)O [compound 24, [5-[[6-[6-(phenylmethoxy)-2-benzoxazolyl]-2-naphthalenyl]oxy]pentyl]propanedioic acid] | –
7 | 860 nM | COc1ccc(-c2cc(OCc3ccccc3F)nc(-c3ccc4cc(OCCCC(C(=O)O)C(=O)O)ccc4c3)n2)cc1 [compound 43, [3-[[6-[4-[(2-fluorophenyl)methoxy]-6-(4-methoxyphenyl)-2-pyrimidinyl]-2-naphthalenyl]oxy]propyl]propanedioic acid] | –
8 | 350 nM | O=C(O)C(CCCCCOc1ccc2cc(-c3nc(OCc4ccccc4)cc(-c4ccccc4)n3)ccc2c1)C(=O)O [compound 47, [5-[[6-[4-phenyl-6-(phenylmethoxy)-2-pyrimidinyl]-2-naphthalenyl]oxy]pentyl]propanedioic acid] | –
9 | 320 nM | CC(C)(C)c1cc(OCC2CCCCC2)nc(-c2ccc3cc(OCCCCCC(C(=O)O)C(=O)O)ccc3c2)n1 [compound 48, [5-[[6-[4-cyclohexylmethoxy-6-(1,1-dimethylethyl)-2-pyrimidinyl]-2-naphthalenyl]oxy]pentyl]propanedioic acid] | –
10 | 290 nM | CC(C)(C)c1cc(OCc2ccc(F)cc2)nc(-c2ccc3cc(OCCCCCC(C(=O)O)C(=O)O)ccc3c2)n1 [compound 49, [5-[[6-[4-(1,1-dimethylethyl)-6-[(4-fluorophenyl)methoxy]-2-pyrimidinyl]-2-naphthalenyl]oxy]pentyl]propanedioic acid] | –
11 | 220 nM | CC(C)(C)c1cc(OCc2ccccc2Cl)nc(-c2ccc3cc(OCCCCCC(C(=O)O)C(=O)O)ccc3c2)n1 [compound 50, [5-[[6-[4-[(2-chlorophenyl)methoxy]-6-(1,1-dimethylethyl)-2-pyrimidinyl]-2-naphthalenyl]oxy]pentyl]propanedioic acid] | –
